Tests used:
HIV-1 integrase = molecular target: T1, HIV-1 integrase (Human immunodeficiency virus type 1 group M subtype B, UniProt P04585); experiment: HIV Integrase Substrate Cleavage and Integration Assay (trimming of the 3' end of HIV long terminal repeat terminus); assay type: biochemical; settings: inhibition of HIV integrase substrate cleavage; inhibitor 0.1 to 100 μM
T1 construct: HIV-1 integrase
Description: HIV Integrase Substrate Cleavage and Integration Assay
An assay for trimming of the 3' end of HIV long terminal repeat terminus by HIV-1 integrase was conducted according to LaFemina, R. L. et al., J. Virol 10, 5624 (1991), herein incorporated by reference for these purposes. To assay inhibition of HIV integrase substrate cleavage, the reaction was conducted with inhibitor having various concentrations in the range of 0.1 to 100 μM.

[1] = molecular target: T2, HIV Integrase/donor (HIV) DNA complexes (Human immunodeficiency virus type 1 group M subtype B, UniProt P04585); experiment: Assay for Assembly of HIV Integrase/donor (HIV) DNA Complexes; settings: inhibition of assembly or binding to immobilized donor (HIV) DNA; inhibitor 0.1 to 100 μM
T2 construct: strand transfer by HIV integrase
Description: Assay for Assembly of HIV Integrase/donor (HIV) DNA Complexes
An assay measuring the binding of HIV Integrase to immobilized donor (HIV) DNA was conducted according to Wolfe, A. L. et al., J. Virol. 70, 1424 (1996), herein incorporated by reference for these purposes. To assay inhibition of such assembly or binding, the reaction was conducted with inhibitor having various concentrations in the range of 0.1 to 100 μM. Results follow.

HIV integrase = molecular target: T3, HIV integrase (Human immunodeficiency virus type 1 group M subtype B, UniProt P04585); experiment: Strand Transfer Assay for HIV Integrase (ligation of processed donor (HIV) DNA to nicked host DNA); assay type: biochemical; settings: inhibition of strand transfer; inhibitor 0.1 to 100 μM
T3 construct: strand transfer by HIV integrase
Description: Strand Transfer Assay for HIV Integrase
A microtiter assay for ligation of processed donor (HIV) DNA to unspecific, nicked host DNA was conducted according to Hazuda, D. J. et al., Nucl. Acids, Res. 22, 1121 (1994), herein incorporated by reference for these purposes. To assay inhibition of such strand transfer by HIV integrase, the reaction was conducted with inhibition having various concentrations in the range of 0.1 to 100 μM.

**Q.** Which IC50 (HIV-1 integrase) does the source give for `C=C(C=O)C1CC2(C)C(=CC1=O)C(OC(=O)C(C)=CC(C)CCCC)CCC2C(=O)O` (stereo not drawn) [Compound A] here?
**A.** The IC50 was 5 to 10 µM.

**Q.** And the IC50 [1]?
**A.** The IC50 was 10 µM.

**Q.** And the IC50 (HIV integrase)?
**A.** Its IC50 is 5 to 10 µM.

Source: patent US5858738A, “Ermophilane sesquiterpenoids as HIV intergrase inhibitors” (Merck & Co., Inc., priority 1997, dated 1999)
